In patent publication US20260055088A1, “HETEROCYCLIC COMPOUND, METHOD FOR PREPARING SAME, AND PHARMACEUTICAL USE THEREOF” (Jiangsu Hengrui Pharmaceuticals Co., Ltd., priority 2022, published 2026):
Where a name gives a salt, the structure may show the parent alone.

Molecular target: Nav1.8 ion channel stably expressed on HEK293 cells (Homo sapiens (Human), UniProt Q9Y5Y9)
Assay: Inhibitory activity against Nav1.8, manual patch clamp
Assay type: cell-based
Settings: resting protocol (-80 mV to 10 mV), 1 μM TTX, read-out: IC50 for the inhibition of Nav1.8 channel activity
Description: The objective of the experiment was to investigate the effects of the compounds on the Nav1.8 ion channel in ex vivo experiments. The Nav1.8 ion channel is stably expressed on HEK293 cells. After the Nav1.8 current stabilized, the effects of the compounds on the Nav1.8 ion channel were obtained by comparing the magnitudes of the Nav1.8 currents before and after the compounds were applied.
• 1) A patch clamp amplifier: patch clamp PC-505B (WARNER instruments)/MultiClamp 700A (Axon instrument) • 2) A digital-to-analog converter: Digidata 1440A (Axon CNS)/Digidata 1550A (Axon instruments) • 3) A micromanipulator: MP-225 (SUTTER instrument) • 4) An inverted microscope: TL4 (Olympus) • 5) Glass micropipette puller: PC-10 (NARISHIGE) • 6) Microelectrode glass capillaries: B12024F (Wuhan VitalSense Scientific Instruments Co., Ltd.) • 7) Dimethyl sulfoxide (DMSO) D2650 (Sigma-Aldrich) • 8) TTX AF3014 (Affix Scientific)
The compounds for preparing the intracellular and extracellular fluids were purchased from Sigma (St. Louis, MO) except for the NaOH and KOH for the acid-base titrations. The extracellular fluid (mM) was: NaCl, 137; KCl, 4; CaCl2, 1.8; MgCl2, 1; HEPES, 10; glucose, 10; pH 7.4 (NaOH titration). The intracellular fluid (mM) was: aspartic acid, 140; MgCl2, 2; EGTA, 11; HEPES, 10; pH 7.2 (CsOH titration). All test and control compound solutions contained 1 μM TTX.
The test compounds were stored at a concentration of 9 mM in dimethyl sulfoxide (DMSO). On the testing day, the compounds were further dissolved in the extracellular fluid to prepare the required concentrations.
1) After the compounds were prepared into solutions with specified concentrations, the compound solutions were sequentially added to channels in ascending order according to their concentrations, and each channel was labeled.
2) A cell was transferred to the perfusion chamber. Positive pressure was applied inside the electrode, and the electrode tip was brought into contact with the cell. The three-way valve of the suction device was switched to the state where all three ways were open, and negative pressure was then applied to the electrode, allowing a high-resistance seal to form between the electrode and the cell. The application of negative pressure was continued to rupture the cell membrane, leading to the formation of a current pathway.
3) After the cell membrane rupture current stabilized, perfusion was performed with different concentrations in sequence. If the current remained stable for at least one minute, perfusion was performed with the next concentration.
4) The perfusion chamber was cleaned. The perfusion chamber was rinsed with the compound solutions in descending order according to their concentrations, with each concentration applied for 20 s. Finally, the perfusion chamber was rinsed with the extracellular fluid for 1 min.
The cell was clamped at −80 mV and then depolarized to 10 mV using a square wave lasting for 10 ms to obtain a Nav1.8 current. This procedure was repeated once every 5 seconds. The maximum current induced by the square wave was detected. After the current stabilized, perfusion was performed with the test compounds. After the reaction stabilized, the strength of the blocking was calculated.
The data were stored on a computer system and analyzed. Data acquisition and analysis were performed using pCLAMP 10 (Molecular Devices, Union City, CA), and the results were reviewed by a manager. “Current stabilized” means that the changes in current over time were within a limited range. The magnitude of the current after stabilization was used to calculate the effect of the compound at this […].
The inhibitory activity of the compounds of the present disclosure against Nav1.8 was determined through the above assay.

Question: With `COc1c([C@H]2[C@H](C(=O)Nc3ccnc(OC[C@H](O)CO)c3)O[C@@](C)(C(F)(F)F)[C@H]2C)ccc(F)c1F` [Example 2, (2R,3S,4S,5R)-3-(3,4-Difluoro-2-methoxyphenyl)-N-(2-((R)-2,3-dihydroxypropoxy)pyridin-4-yl)-4,5-dimethyl-5-(trifluoromethyl)tetrahydrofuran-2-carboxamide] as the compound, how does the IC50 read?
Answer: Its IC50 is 2.89 nM.

Question: For `COc1c([C@H]2[C@H](C(=O)Nc3ccnc(C(C)(C)O)c3)O[C@@](C)(C(F)(F)F)[C@H]2C)ccc(F)c1F` [Example 3, (2R,3S,4S,5R)-3-(3,4-Difluoro-2-methoxyphenyl)-N-(2-(2-hydroxypropan-2-yl)pyridin-4-yl)-4,5-dimethyl-5-(trifluoromethyl)tetrahydrofuran-2-carboxamide], which IC50 is on record?
Answer: The IC50 was 2.65 nM.

Question: For `CONC(=O)c1cc(NC(=O)[C@@H]2O[C@@](C)(C(F)(F)F)[C@@H](C)[C@H]2c2ccc(F)c(F)c2OC)ccn1` [Example 5, 4-((2R,3S,4S,5R)-3-(3,4-Difluoro-2-methoxyphenyl)-4,5-dimethyl-5-(trifluoromethyl)tetrahydrofuran-2-carboxamido)-N-methoxypicolinamide], which IC50 is on record?
Answer: Its IC50 is 0.71 nM.

Question: How did the IC50 turn out when `COc1c([C@H]2[C@H](C(=O)Nc3ccnc(C(N)CO)c3)O[C@@](C)(C(F)(F)F)[C@H]2C)ccc(F)c1F` (stereo partly drawn) [Example 6, (2R,3S,4S,5R)—N-(2-(1-Amino-2-hydroxyethyl)pyridin-4-yl)-3-(3,4-difluoro-2-methoxyphenyl)-4,5-dimethyl-5-(trifluoromethyl)tetrahydrofuran-2-carboxamide] was run?
Answer: The IC50 was 1.87 nM.

Question: Which IC50 does the source give for `COc1c([C@H]2[C@H](C(=O)Nc3ccnc(NC(N)=O)c3)O[C@@](C)(C(F)(F)F)[C@H]2C)ccc(F)c1F` [Example 9, (2R,3S,4S,5R)-3-(3,4-Difluoro-2-methoxyphenyl)-4,5-dimethyl-5-(trifluoromethyl)-N-(2-ureidopyridin-4-yl)tetrahydrofuran-2-carboxamide] here?
Answer: The IC50 was 3.24 nM.

Question: How did the IC50 turn out when `COc1c([C@H]2[C@H](C(=O)Nc3ccnc(NC(C)=O)c3)O[C@@](C)(C(F)(F)F)[C@H]2C)ccc(F)c1F` [Example 11, (2R,3S,4S,5R)—N-(2-Acetamidopyridin-4-yl)-3-(3,4-difluoro-2-methoxyphenyl)-4,5-dimethyl-5-(trifluoromethyl)tetrahydrofuran-2-carboxamide] was run?
Answer: Its IC50 is 1.54 nM.

Question: `COc1c([C@H]2[C@H](C(=O)Nc3ccnc(C(=O)N4CCCN4)c3)O[C@@](C)(C(F)(F)F)[C@H]2C)ccc(F)c1F` [Example 14, (2R,3S,4S,5R)-3-(3,4-Difluoro-2-methoxyphenyl)-4,5-dimethyl-N-(2-(pyrazolidine-1-carbonyl)pyridin-4-yl)-5-(trifluoromethyl)tetrahydrofuran-2-carboxamide] was tested. Which IC50 did it give?
Answer: Its IC50 is 2.12 nM.

Question: `COc1c([C@H]2[C@H](C(=O)Nc3ccnc(C(=O)N4CCCO4)c3)O[C@@](C)(C(F)(F)F)[C@H]2C)ccc(F)c1F` [Example 15, (2R,3S,4S,5R)-3-(3,4-Difluoro-2-methoxyphenyl)-N-(2-(isoxazolidine-2-carbonyl)pyridin-4-yl)-4,5-dimethyl-5-(trifluoromethyl)tetrahydrofuran-2-carboxamide] was tested. Which IC50 did it give?
Answer: Its IC50 is 1.78 nM.

Question: `COc1c([C@H]2[C@H](C(=O)Nc3ccnc(C(=O)NOCC4CC4)c3)O[C@@](C)(C(F)(F)F)[C@H]2C)ccc(F)c1F` [Example 18, N-(Cyclopropylmethoxy)-4-((2R,3S,4S,5R)-3-(3,4-difluoro-2-methoxyphenyl)-4,5-dimethyl-5-(trifluoromethyl)tetrahydrofuran-2-carboxamido)picolinamide] was tested. Which IC50 did it give?
Answer: Its IC50 is 1.89 nM.

Question: With `CNNC(=O)c1cc(NC(=O)[C@@H]2O[C@@](C)(C(F)(F)F)[C@@H](C)[C@H]2c2ccc(F)c(F)c2OC)ccn1` [Example 19, (2R,3S,4S,5R)-3-(3,4-Difluoro-2-methoxyphenyl)-4,5-dimethyl-N-(2-(2-methylhydrazine-1-carbonyl)pyridin-4-yl)-5-(trifluoromethyl)tetrahydrofuran-2-carboxamide] as the compound, how does the IC50 read?
Answer: The IC50 was 1.01 nM.

Question: `C/N=C(\N)c1cc(NC(=O)[C@@H]2O[C@@](C)(C(F)(F)F)[C@@H](C)[C@H]2c2ccc(F)c(F)c2OC)ccn1` [Example 21, (2R,3S,4S,5R)-3-(3,4-Difluoro-2-methoxyphenyl)-4,5-dimethyl-N-(2-((Z)—N′-methylcarbamimidoyl)pyridin-4-yl)-5-(trifluoromethyl)tetrahydrofuran-2-carboxamide] was tested. Which IC50 did it give?
Answer: The IC50 was 1.35 nM.

Question: With `CCNNC(=O)c1cc(NC(=O)[C@@H]2O[C@@](C)(C(F)(F)F)[C@@H](C)[C@H]2c2ccc(F)c(F)c2OC)ccn1` [Example 22, (2R,3S,4S,5R)-3-(3,4-Difluoro-2-methoxyphenyl)-N-(2-(2-ethylhydrazine-1-carbonyl)pyridin-4-yl)-4,5-dimethyl-5-(trifluoromethyl)tetrahydrofuran-2-carboxamide] as the compound, how does the IC50 read?
Answer: The IC50 was 0.68 nM.

Question: For `COc1c([C@H]2[C@H](C(=O)Nc3ccnc(C(=O)NNC4CC4)c3)O[C@@](C)(C(F)(F)F)[C@H]2C)ccc(F)c1F` [Example 23, (2R,3S,4S,5R)—N-(2-(2-Cyclopropylhydrazine-1-carbonyl)pyridin-4-yl)-3-(3,4-difluoro-2-methoxyphenyl)-4,5-dimethyl-5-(trifluoromethyl)tetrahydrofuran-2-carboxamide], which IC50 is on record?
Answer: The IC50 was 2.85 nM.

Question: For `COc1c([C@H]2[C@H](C(=O)Nc3ccnc(C(=O)NN(C)C)c3)O[C@@](C)(C(F)(F)F)[C@H]2C)ccc(F)c1F` [Example 24, (2R,3S,4S,5R)-3-(3,4-Difluoro-2-methoxyphenyl)-N-(2-(2,2-dimethylhydrazine-1-carbonyl)pyridin-4-yl)-4,5-dimethyl-5-(trifluoromethyl)tetrahydrofuran-2-carboxamide], which IC50 is on record?
Answer: Its IC50 is 2.12 nM.

Question: With `COc1c([C@H]2[C@H](C(=O)Nc3ccnc(C(=O)C(N)=O)c3)O[C@@](C)(C(F)(F)F)[C@H]2C)ccc(F)c1F` [Example 26, (2R,3S,4S,5R)—N-(2-(2-Amino-2-oxoacetyl)pyridin-4-yl)-3-(3,4-difluoro-2-methoxyphenyl)-4,5-dimethyl-5-(trifluoromethyl)tetrahydrofuran-2-carboxamide trifluoroacetate] as the compound, how does the IC50 read?
Answer: Its IC50 is 1.09 nM.

Question: `COc1c([C@H]2[C@H](C(=O)Nc3ccc(F)c(C(=N)N)c3)O[C@@](C)(C(F)(F)F)[C@H]2C)ccc(F)c1F` [Example 27, (2R,3S,4S,5R)—N-(3-Carbamimidoyl-4-fluorophenyl)-3-(3,4-difluoro-2-methoxyphenyl)-4,5-dimethyl-5-(trifluoromethyl)tetrahydrofuran-2-carboxamide] was tested. Which IC50 did it give?
Answer: Its IC50 is under 0.16 nM.

Question: `[2H]C([2H])([2H])O/N=C(\N)c1cc(NC(=O)[C@@H]2O[C@@](C)(C(F)(F)F)[C@@H](C)[C@H]2c2ccc(F)c(F)c2OC)ccn1` [Example 37, (2R,3S,4S,5R)-3-(3,4-Difluoro-2-methoxyphenyl)-N-(2-((Z)—(N′-methoxy-d3)carbamimidoyl)pyridin-4-yl)-4,5-dimethyl-5-(trifluoromethyl)tetrahydrofuran-2-carboxamide] was tested. Which IC50 did it give?
Answer: Its IC50 is 1.86 nM.

Question: `COc1c([C@H]2[C@H](C(=O)Nc3ccnc(OCC(O)C4(O)CC4)c3)O[C@@](C)(C(F)(F)F)[C@H]2C)ccc(F)c1F` (stereo partly drawn) [Example 39, (2R,3S,4S,5R)-3-(3,4-Difluoro-2-methoxyphenyl)-N-(2-(2-hydroxy-2-(1-hydroxycyclopropyl)ethoxy)pyridin-4-yl)-4,5-dimethyl-5-(trifluoromethyl)tetrahydrofuran-2-carboxamide] was tested. Which IC50 did it give?
Answer: The IC50 was 2.68 nM.
